Conditions in all cases: male, Sprague-Dawley, rat, iv, 1 mg/kg
A short description of data set [1]: in vivo.
The nature of data set [2]: in vivo. The source holds these as a separate data set.
The nature of data set [3]: in vivo. This is another data set of the same source.
The nature of data set [4]: in vivo. This is another data set of the same source.

Molecules are shown by their SMILES.

As for `COc1cc(F)ccc1-c1cc(Nc2cc(CS(C)(=N)=O)ccn2)ncc1F` (centres undefined) [ENITOCICLIB], in the data set “in vivo [1]”, the half-life (commonly how long it takes for the measured level to halve) at 8 h is 1.1 h. In addition, the AUC(0-t) (commonly the area under the concentration-time curve up to a stated or last time point) at 8 h in the data set “in vivo [2]” was 1190 ng·h/mL. Besides, the volume of distribution (Vd) (commonly the apparent volume that relates the amount in the body to the concentration in plasma or blood) at 8 h in the data set “in vivo [3]” stood at 1.11 L/kg. The clearance (usually the volume of plasma or blood freed of the substance per unit of time) at 8 h in “in vivo [4]” was 14 mL/min/kg.

(Values after ChEMBL document CHEMBL6109151, “Discovery of a Novel Dihydroisoquinolinone Derivative as a Potent CDK9 Inhibitor Capable of Overcoming L156F Mutant for the Treatment of Hematologic Malignancies” (J Med Chem, 2025).)
